Measurements taken from EP1650209A1, “Griseusin derivatives and their use as antitumor agents” (Oncotest GmbH, priority 2004, dated 2006).
Values after ≈ are worked out from the molar mass of the structure shown.

Key:
Experiment in all cases: Clonogenic assay, colony formation of tumor stem cells from xenografts
Assay type in all cases: cell-based, human
CXF 280 = conditions: Colon, xenograft CXF 280, colony formation
Method: (§1) Using various human cancer xenografts in vitro, the concentrations of compound B which inhibit formation of tumor colonies of tumor stem cells by 50% (IC50) and 70% (IC70) are determined in a clonogenic assay. Specifically, each solid tumor of bladder cancer (BXF 1036 and BXF 1299), cervical cancer (CEXF 633 and CEXF 773), colic cancer (CXF 1103, CXF 158, CXF 1729, CXF 264 and CXF 280), gastric cancer (GXF 251 and GXF 97), head and neck cancer (HNXF 536), liver cancer (LIXF 575), non small cell lung cancer comprising adeno, squamous epithelium and large cell carcinoma (LXFA 1012, LXFA 289, LXFA 297, LXFA 526, LXFA 592, LXFA 629, LXFA 677, LXFE 409, LXFL 1072, LXFL 430LX and LXFL 529), small cell lung cancer (LXFS 650), mammary cancer (MAXF 1162, MAXF 1384, MAXF 401, MAXF 449, MAXF 574, MAXF 583, MAXF 713 and MAXF 857), melanoma (MEXF 1341, MEXF 462, MEXF 535 and MEXF 989), ovary cancer (OVXF 899), pancreatic cancer (PAXF 546 and PAXF 736), prostate cancer (DU-145 and PC3M), pleuramesothelioma (PXF 1752), renal cancer (RXF 1220, RXF 1393, RXF 393, RXF 631 and RXF 944LX), and sarcoma (SXF 1301 and SXF 463) engrafted on RPMI nu/nu thymus aplastic nude mice were explanted, disaggregated by mincing and enzymatic digestion for 50 minutes using 125 U/mL DNAse I, 41 U/mL collagenase IV, 100 U/ml hyaluronidase III, and 1 U/mL dispase I, and passed through sieves of 200 µm and 50 µm mesh size and washed twice with sterile PBS-buffer to remove cell aggregated from single cells. The clonogenic assay was performed in a 24 multiwell format. Each of the resulting single cell suspensions was added at a density of 2·10^4 to 6·10^4 cells per well to 0.2 ml of Iscove's Modified Dulbecco's Medium (IMDM) containing 20% fetal calf serum and 0.01% gentamicin supplemented with 0.4% (w/v) agar, and plated onto a bottom layer consisting of the same culture medium containing 0.75% (w/v) agar. After 24 hours IMDM containing 20% fetal calf serum and 0.01 % gentamicin, together with a test compound, was added there to. Then, the plate was incubated at 37°C for 10 to 20 days in a humidified atmosphere of air containing 7.5% CO2. Within this period, in vitro tumor growth led to the formation of colonies with a diameter of > 50µm. Colony counts were performed with an automatic image analysis system (OMNICON 3600). 24 hours prior to evaluation, vital colonies were stained with a vital staining dye. Therefore, 100 µl of a sterile aqueous solution of 2-(4-iodophenyl)-3-(4-nitrophenyl)-5-phenyltetrazolium chloride (1 mg/ml) were added to each well of the plate, and plates were incubated for 24 hours at 37°C in a humidified atmosphere of air containing 7.5% CO2. Inhibition of colony formation was expressed as test versus untreated control (T/C-value [%]). IC50 and IC70 values were determined by plotting compound concentration versus cell viability. Table 3: Inhibition of Colony Formation of Tumor Stem Cells by griseusin derivative B

CXF 1103 = conditions: Colon, xenograft CXF 1103, colony formation
Method: as §1

MEXF 1341 = conditions: Melanoma, xenograft MEXF 1341, colony formation
Method: as §1

LXFA 677 = conditions: Lung, non small cell, xenograft LXFA 677, colony formation
Method: as §1

LXFL 430LX = conditions: Lung, non small cell, xenograft LXFL 430LX
Method: as §1

LXFA 1012 = conditions: Lung, non small cell, xenograft LXFA 1012, colony formation
Method: as §1

PXF 1752 = conditions: Pleuramesothelio, xenograft PXF 1752, colony formation
Method: as §1

MAXF 574 = conditions: Breast, xenograft MAXF 574, colony formation
Method: as §1

RXF 944LX = conditions: Kidney, xenograft RXF 944LX
Method: as §1

MAXF 857 = conditions: Breast, xenograft MAXF 857, colony formation
Method: as §1

CXF 158 = conditions: Colon, xenograft CXF 158, colony formation
Method: as §1

LXFA 526 = conditions: Lung, non small cell, xenograft LXFA 526, colony formation
Method: as §1

MAXF 713 = conditions: Breast, xenograft MAXF 713, colony formation
Method: as §1

MEXF 989 = conditions: Melanoma, xenograft MEXF 989, colony formation
Method: as §1

MEXF 535 = conditions: Melanoma, xenograft MEXF 535, colony formation
Method: as §1

CXF 264 = conditions: Colon, xenograft CXF 264, colony formation
Method: as §1

LXFA 592 = conditions: Lung, non small cell, xenograft LXFA 592, colony formation
Method: as §1

SXF 463 = conditions: Sarcoma, xenograft SXF 463, colony formation
Method: as §1

SMILES: C[C@@H]1CC(=O)[C@@H](O)[C@]2(O1)O[C@@H]1CC(=O)O[C@@H]1C1=C2C(=O)c2c(O)cccc2C1=O [Compound B, 4'-dehydro-deacetylgriseusin A]
- IC50 (CXF 280): 0.379 µg/mL (≈ 0.947 µM)
- IC70 (CXF 280): 0.609 µg/mL (≈ 1.52 µM)
- IC50 (CXF 1103): 0.173 µg/mL (≈ 0.432 µM)
- IC70 (CXF 1103): 0.529 µg/mL (≈ 1.32 µM)
- IC50 (MEXF 1341): 0.462 µg/mL (≈ 1.15 µM)
- IC70 (MEXF 1341): 0.673 µg/mL (≈ 1.68 µM)
- IC50 (LXFA 677): 0.974 µg/mL (≈ 2.43 µM)
- IC70 (LXFA 677): 8.063 µg/mL (≈ 20.1 µM)
- IC50 (LXFL 430LX): 0.272 µg/mL (≈ 0.679 µM)
- IC70 (LXFL 430LX): 0.468 µg/mL (≈ 1.17 µM)
- IC50 (LXFA 1012): 0.442 µg/mL (≈ 1.1 µM)
- IC70 (LXFA 1012): 0.631 µg/mL (≈ 1.58 µM)
- IC50 (PXF 1752): 0.811 µg/mL (≈ 2.03 µM)
- IC70 (PXF 1752): 1.253 µg/mL (≈ 3.13 µM)
- IC50 (MAXF 574): 0.335 µg/mL (≈ 0.837 µM)
- IC70 (MAXF 574): 0.523 µg/mL (≈ 1.31 µM)
- IC50 (RXF 944LX): 0.116 µg/mL (≈ 0.29 µM)
- IC70 (RXF 944LX): 0.171 µg/mL (≈ 0.427 µM)
- IC50 (MAXF 857): 1.449 µg/mL (≈ 3.62 µM)
- IC70 (MAXF 857): 1.975 µg/mL (≈ 4.93 µM)
- IC50 (CXF 158): 0.126 µg/mL (≈ 0.315 µM)
- IC70 (CXF 158): 0.358 µg/mL (≈ 0.894 µM)
- IC50 (LXFA 526): 0.300 µg/mL (≈ 0.749 µM)
- IC70 (LXFA 526): 0.512 µg/mL (≈ 1.28 µM)
- IC50 (MAXF 713): 0.498 µg/mL (≈ 1.24 µM)
- IC70 (MAXF 713): 0.700 µg/mL (≈ 1.75 µM)
- IC50 (MEXF 989): 0.118 µg/mL (≈ 0.295 µM)
- IC70 (MEXF 989): 0.182 µg/mL (≈ 0.455 µM)
- IC50 (MEXF 535): 0.055 µg/mL (≈ 0.137 µM)
- IC70 (MEXF 535): 0.094 µg/mL (≈ 0.235 µM)
- IC50 (CXF 264): 0.103 µg/mL (≈ 0.257 µM)
- IC70 (CXF 264): 0.215 µg/mL (≈ 0.537 µM)
- IC50 (LXFA 592): 0.215 µg/mL (≈ 0.537 µM)
- IC70 (LXFA 592): 0.468 µg/mL (≈ 1.17 µM)
- IC50 (SXF 463): 0.235 µg/mL (≈ 0.587 µM)
- IC70 (SXF 463): 0.334 µg/mL (≈ 0.834 µM)
